# Several values for one entry are separate records, joined by “and”; a condition that tells them apart may be missing. Equal entries are not always repeated. Entries after “also recorded” stand apart in the source; their conditions may differ. Where two headings read alike, the source gives them in different places.
# Experiments:
# [1] = system: MCF7 human breast cancer cells; test: MTT growth inhibition assay on MCF7 cells; type: cell-based
# [2] = system: MDA-MB-453 human breast cancer cells; test: MTT growth inhibition assay and combination index on MDA-MB-453 cells
# Experimental: MTT assay: the MTT (3-(4,5-dimethyl-2-thiazol)-2,5-diphenyl-2H tetrazolilum bromide) cell proliferation assay system (Roche Diagnostic, Mannheim, Germany) was used to determine the sensitivity of the various cell lines to agents. Cells were seeded at 1×10^4 cells/well in 96-well plates and allowed to attach for 24 h. The medium was replaced with fresh medium containing DMSO or compound. The cells were treated for 96 or 120 h, after which they were incubated with MTT reagents and the absorbance read at 650 and 575 nm.
# The results of the MTT assay were analyzed for possible synergistic effects using the median effect principle.
# [3] = system: HT29 human colon cancer cells; test: MTT growth inhibition assay on HT29 cells; type: cell-based
# 293T(null) cells = test: MTT growth inhibition assay on 293T(null) cells; type: cell-based; settings: Homo sapiens, HEK-293T, 96 h MTT, FIG. 10B
# [4] = system: 293T(NF-κB) stably transformed cells; test: MTT growth inhibition assay on 293T(NF-κB) cells; type: cell-based; settings: Homo sapiens, HEK-293T, 96 h MTT, FIG. 10B
# MCF7 cells = test: Calcium release, cells preloaded with Fura-2, MCF7; type: cell-based, human
# Experimental: (§1) Methods: To reveal signaling pathways, human breast and colon cancer, as well as 293T(NK-kB), cells were treated with actein, alone or combined with specific inhibitors. Effects were measured using the MTT, luciferase, promoter and Western blot assays and histology. To assess effects on calcium release, cells were preloaded with the calcium sensitive dye Fura-2. To enhance bioavailability, actein was conjugated to nanoparticle liposomes.
# (§2) To elucidate the primary targets of actein, the effect of actein on calcium release was assessed. Cells were preloaded with the calcium sensitive dye Fura-2, which binds to calcium ions inside the cell. […] The effect was dose dependent in that it was stronger at 10 μM than at 10 nM in MCF7 breast cancer cells (FIG. 7A, B). […] The increase in calcium level was more sustained at the higher dose of actein (10 μM)) versus 10 nM and it continued longer for MDA-MB-453 than for MCF7 breast cancer cells (FIG. 7C).
# MDA-MB-453 cells = test: Calcium release, cells preloaded with Fura-2, MDA-MB-453; type: cell-based, human; settings: MDA-MB-453, FIG. 7C
# Experimental: as §1, §2
# HT29 cells = test: Calcium release, cells preloaded with Fura-2, HT29; type: cell-based, human
# Experimental: as §1, §2
# [5] = system: NFκB transcription factor; test: NF-kB luciferase assay in 293T cells; type: cell-based; settings: 293T(NF-κB) cells
# Experimental: A luciferase reporter construct is integrated in 293T cells and is regulated by 6 copies of the NFκB response element. The assay to monitor the activity of NFκB transcription factor was performed as described in the manufacturer's instructions (Panomics, Freemont, Calif.).
# IKKβ protein = test: Western blot analysis of IKKβ; type: cell-based; settings: 3 h, FIG. 10C
# Experimental: Cells were treated for increasing times, in media containing serum, with approximately the IC50 and twice the IC50 concentration, measured at 48 h, of actein. Western blot analysis was performed as previously described (Einbond et al., 2004). The membrane was incubated with the primary antibody IKKβ (Santa Cruz Biotechnology; Santa Cruz, Calif.); β-actin was used as a loading control.
# [6] = system: MDA-MB-453 breast cancer cells; test: Gene expression analysis in MDA-MB-453 cells; type: cell-based, human; settings: actein 20 μg/ml
# Experimental: Gene expression analysis was performed as previously described in vitro (Einbond et al., 2007)
# AffyLimma analysis: To identify individual alterations in gene expression induced by treatment, an unbiased informatics analysis was performed using the AffyLimmaGUI package in the open-source Bioconductor suite, as previously described [Einbond et al., 2007.]
# rat liver [7] = test: Gene expression in rat liver after actein; type: in vivo; settings: gene expression analysis
# Na+/K+-ATPase = settings: Einbond et al., 2008, cited from earlier work
# rat liver [8] = settings: cited from earlier work
# [9] = system: NF-kB promoter activity, p-Erk, p-Akt, cyclin D1; settings: later times (24 h), Einbond et al., 2008; cited from earlier work
# [10] = system: breast cancer cell growth; settings: Einbond et al., 2008; cited from earlier work
# [11] = Homo sapiens, MDA-MB-453, read-out: IC50, agent alone
compound,measurement,setting,value
CC(=O)O[C@@H]1C[C@@]23C[C@@]24CC[C@H](O[C@@H]2OC[C@@H](O)[C@H](O)[C@H]2O)C(C)(C)[C@@H]4CC[C@H]3[C@]2(C)C[C@@H]3O[C@]4(C[C@@H](C)[C@@H]3[C@@]12C)O[C@H](O)[C@@]1(C)O[C@@H]41 [actein],IC50,"[1]; MCF7, 96 h, read-out: IC50, concentration that caused 50% inhibition of cell growth",~30 µM
same,viability at 5 µg/mL,"[1]; MCF7, actein 5 μg/ml alone or plus U0126 10 μM, read-out: percent viable cells",79.2%
same,IC50,"[1]; MCF7, actein alone or combined with MEK inhibitor U0126, FIG. 6B, read-out: IC50, growth inhibition",20 mg/L
same,IC50,"[2]; Homo sapiens, MDA-MB-453, 96 h, read-out: IC50, concentration that caused 50% inhibition of cell growth",~8 µg/mL and ~12 µM
same,IC50,[2]; [11],25 mg/L
same,IC50,"[2]; Homo sapiens, MDA-MB-453, read-out: IC50, growth inhibition",23 mg/L
same,ability of actein to potentiate the effects of thapsigargin,"[2]; MDA-MB-453, FIG. 8A, B",enhanced the effects of thapsigargin
same,IC50,"[3]; Homo sapiens, HT-29, 96 h, read-out: IC50, concentration that caused 50% inhibition of cell growth",~24 µg/mL and ~35 µM
same,viability at 10 µg/mL,"[3]; Homo sapiens, HT-29, HT29, actein 10 μg/ml alone or plus U0126 10 μM, read-out: percent viable cells",79.1%
same,IC50,"[3]; Homo sapiens, HT-29, HT29, actein alone or combined with MEK inhibitor U0126, FIG. 6C, read-out: IC50, growth inhibition",30 mg/L
same,IC50,293T(null) cells,75 mg/L
same,IC50,[4],38 mg/L
same,"calcium release (action potential, Fura-2)","MCF7 cells; MCF7, actein 10 nM and 10 μM, FIG. 7A, B",induced an increase in action potential indicating calcium release
same,intracellular calcium (ion concentration) levels,"MCF7 cells; MCF7, actein 100 nM or 100 μM, FIG. 4",significantly increases intracellular calcium
same,time course of the calcium effect,MCF7 cells; MCF7 breast cancer cells,immediate and transient
same,"calcium release (action potential, Fura-2)",MDA-MB-453 cells,induced an increase in action potential indicating calcium release
same,"calcium release (action potential, Fura-2)",HT29 cells,induced an increase in action potential indicating calcium release
same,effect on 293T cells stably transformed with the NF-κB plasmid (FIG. 10A NF-kB activity),[5],did not increase cell proliferation
same,level of IKKβ protein,IKKβ protein,decreased the level of IKKβ protein in a dose dependent manner
same,"expression of the inflammatory pathway, cytokine-cytokine interaction","[6]; 6 h, up EPOR, down CXCR4, TRAF5, IL17RB",significantly modulated
same,expression of the MAPK signaling pathway,[6]; gene (up) HSPA1A,significantly altered
same,expression of the inflammatory gene CXCR4 in rat liver tissue,rat liver [7],reduced the expression
same,activity of the purified Na-K ATPase,Na+/K+-ATPase; 2007,inhibits the activity of the purified Na+/K+-ATPase; also recorded: inhibited the activity of the purified Na-K ATPase
same,combination with digitoxin on Na/K ATPase activity,Na+/K+-ATPase,synergized with digitoxin
same,"genes erythropoietin, CYP2C and ATP synthase in rat liver","rat liver [8]; actein 35.7 mg/kg for 6 h, rat liver (Einbond et al., 2009)",downregulated
same,responses elicited in rat liver in vivo,rat liver [8]; rat liver,elicited stress and statin-associated responses
same,"level of NF-kB promoter activity, p-Erk, p-Akt and cyclin D1 protein",[9],reduced
same,combination with digitoxin on breast cancer cell growth,[10],synergized with digitoxin
"C/C=C(/C)C(=O)O[C@H]1C(C)=C2[C@H]([C@@H]1OC(=O)CCCCCCC)[C@@](C)(OC(C)=O)C[C@H](OC(=O)CCC)[C@@]1(O)[C@H]2OC(=O)[C@@]1(C)O [thapsigargin, reference compound]",IC50,[2]; [11],0.018 mg/L
same,viability at 0.01 µg/mL,"[2]; Homo sapiens, MDA-MB-453, read-out: percent viable cells",76.3%
heparin [reference compound],effect of heparin on the growth inhibitory effects of actein,[3]; HT29 colon cancer cells,partially blocked
same,effect of heparin on actein-induced calcium release,MDA-MB-453 cells,completely blocked
